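Cultured in 96-well plates, cells were exposed to test compound for 48 hours across five concentrations. GI50 is the concentration that inhibits growth by half.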 The source made the active and inactive calls. Rule as the data show it: active = GI50 up to about 1.1 µM and inactive = higher. Bounds are passed on as bounds.

What all share (test): NCI tumour cell line growth inhibition, 48 h
Assay [1] has as its system MDA-MB-435.
Assay [2] deals with 786-0.
Assay [3] has as its system HCT-15.
Assay [4] relates to RPMI-8226.
The subject of assay [5] is SK-OV-3.
Assay [6] relates to A549.
Assay [7] concerns T47D.
Assay [8] relates to HOP-92.
Assay [9] deals with K562.
Assay [10] relates to NCI-H226.
Assay [11] concerns SNB-75.
For assay [12], the system named is RXF 393.
Assay [13] relates to SNB-19.
Assay [14] relates to OVCAR-3.
For assay [15], the system named is SK-MEL-28.
Assay [16] deals with A498.
The subject of assay [17] is HL-60.
In assay [18] the test system is LOX IMVI.
In assay [19] the test system is SK-MEL-5.
Assay [20] concerns Hs-578T.

In the case of `Cc1cc(C#N)c(Nc2ccccc2[N+](=O)[O-])s1`, the GI50 is 18.8 µM (inactive) in assay [1]; 49.9 µM (inactive) in assay [2]; 28.8 µM in [3]; 22.6 µM (inactive) in assay [4]; 26.4 µM (inactive) in [5]; 85.3 µM (inactive) in [6]. The GI50 in [7] was 36.6 µM (inactive); in assay [8], 57.9 µM (inactive); in [9], 45.2 µM (inactive); in assay [10], 51.1 µM (inactive); in assay [11], 15.4 µM (inactive); in assay [12] it was 3.96 µM (inactive). Besides, the GI50 in assay [13] is 41 µM (inactive); in assay [14] it was 21 µM (inactive); in assay [15], 45.2 µM (inactive); in [16], 37.7 µM (inactive).

Consider `COC1=C(C)C(=O)C2C(C1=O)C(c1ccc(OC)c(OC)c1)[C@H]2C` (some centres not stated), for which the GI50 in assay [2] is > 100 µM (inactive); in [3], greater than 100 µM; in [4] it was > 100 µM (inactive); in assay [5], > 100 µM (inactive); in assay [6], > 100 µM (inactive); in assay [8], > 100 µM (inactive). The GI50 in assay [9] was > 100 µM (inactive); in assay [17], > 100 µM (inactive); in assay [10], > 100 µM (inactive); in [11], 72.8 µM (inactive); in assay [12] it was > 100 µM (inactive); in assay [13] it was > 100 µM (inactive). For the same compound, the GI50 in assay [14], in assay [18], in assay [15], in assay [16] and in assay [19] was > 100 µM (inactive) in each case.

`CCCCCC(O)(CCCCC)CCCCCCCCC1=C(O)C(=O)c2ccc(=O)[nH]c2C1=O`: the GI50 in assay [2] is 8.63 µM (inactive); in assay [3], 4.22 µM; in assay [4], 4.12 µM (inactive); in [5] it was 15.9 µM (inactive); in [6], 5.41 µM (inactive); in assay [8], 13.3 µM (inactive). Also, the GI50 in [9] was 5.07 µM (inactive); in [17], 4.92 µM (inactive); in [10] it was 8.36 µM (inactive); in assay [11], 17.5 µM (inactive); in [12], 9.38 µM (inactive); in [13] it was 5.48 µM (inactive). Moreover, the GI50 is 4.23 µM (inactive) in assay [14]; 11.7 µM (inactive) in assay [18]; 8.32 µM (inactive) in [15]; 12.2 µM (inactive) in [16]; 3.78 µM (inactive) in assay [19].

In the case of `O=[N+]([O-])c1ccc(CSc2nncc3[nH]cnc23)cc1`, the GI50 in assay [1] was 93.1 µM (inactive); in assay [2], > 100 µM (inactive); in assay [3], greater than 100 µM; in assay [4], > 100 µM (inactive); in [5], > 100 µM (inactive); in [6], > 100 µM (inactive). In addition, the GI50 in assay [7] was > 100 µM (inactive); in assay [8], 10.6 µM (inactive); in assay [9] it was 84.9 µM (inactive); in assay [17], > 100 µM (inactive); in [10], > 100 µM (inactive); in [11], 80.2 µM (inactive). For the same compound, the GI50 in [14], in [18], in assay [15], in assay [16] and in [19] was > 100 µM (inactive) throughout.

With `C=C(C)C1Cc2c(cc(O)c3c(=O)c4c(oc23)C(O)Oc2cc(OC)c(OC)cc2-4)O1` (configuration not stated), the GI50 in assay [1] was > 10 µM (inactive); in [2], > 10 µM (inactive); in assay [3], greater than 10 µM; in assay [4], > 10 µM (inactive); in [6], > 10 µM (inactive); in assay [7], > 10 µM (inactive). Also, the GI50 in assay [8] was > 10 µM (inactive); in assay [9], > 10 µM (inactive); in assay [17], > 10 µM (inactive); in assay [10], 6.97 µM (inactive); in assay [12], > 10 µM (inactive); in assay [13], > 10 µM (inactive). The GI50 in assay [14], in [15] and in assay [16] was > 10 µM (inactive) in each case.

For `CCCCCCc1ccc(CCCCCCCC(=O)O)o1`, the GI50 in assay [1] was > 100 µM (inactive); in assay [2] it was > 100 µM (inactive); in [3], 61.5 µM; in [4] it was 39.6 µM (inactive); in assay [5], > 100 µM (inactive); in assay [6], 50 µM (inactive). Moreover, the GI50 was > 100 µM (inactive) in assay [7]; > 100 µM (inactive) in assay [8]; 22.3 µM (inactive) in [9]; 94 µM (inactive) in assay [10]; 55.7 µM (inactive) in assay [11]; > 100 µM (inactive) in [13]. For the same compound, the GI50 is 34.2 µM (inactive) in [14], > 100 µM (inactive) in assay [18], > 100 µM (inactive) in [15] and > 100 µM (inactive) in assay [19].

On to `O=c1oc2c(O)c(O)cc3c(=O)oc4c(O)c(O)cc1c4c23` [ELLAGIC ACID], for which the GI50 is 27.2 µM (inactive) in assay [2]; 79.8 µM in assay [3]; > 10 µM (inactive) in assay [4]; 73.1 µM (inactive) in [5]; 68.2 µM (inactive) in [6]; 31 µM (inactive) in assay [8]. For the same compound, the GI50 was > 10 µM (inactive) in assay [9]; > 10 µM (inactive) in assay [17]; 23.6 µM (inactive) in assay [10]; 32.4 µM (inactive) in assay [11]; > 10 µM (inactive) in assay [12]; 18.7 µM (inactive) in assay [13]. Moreover, the GI50 in [14] is 29.9 µM (inactive); in assay [18], 93.5 µM (inactive); in assay [15], > 10 µM (inactive); in assay [16] it was 21.4 µM (inactive); in assay [19] it was > 10 µM (inactive).

On to `C/C(=C1/N=C(c2cc([N+](=O)[O-])ccc2Cl)N(c2ccc(Br)cc2)C1=O)c1ccc(N(CCC#N)CCC#N)cc1C`, for which the GI50 in assay [2] is 29.6 µM (inactive); in [3] it was 16.4 µM; in assay [4], 28.1 µM (inactive); in assay [5], > 100 µM (inactive); in assay [6], 22.5 µM (inactive); in assay [8] it was 36.4 µM (inactive). The GI50 is 7.78 µM (inactive) in assay [9]; 16.2 µM (inactive) in assay [17]; > 100 µM (inactive) in assay [10]; > 100 µM (inactive) in [11]; 16.8 µM (inactive) in assay [12]; 19.8 µM (inactive) in assay [13]. The GI50 in [14] was 24.5 µM (inactive); in assay [18] it was 7.5 µM (inactive); in assay [15] it was 49.5 µM (inactive); in assay [16] it was 25.7 µM (inactive); in assay [19] it was 13.7 µM (inactive).

As to `COC(=O)C1=COC(OC2OC(CO)C(O)C(O)C2O)C2C3CN4CCc5c([nH]c6ccccc56)C4(CC12)O3` (configuration not stated), the GI50 is > 100 µM (inactive) in [2]; greater than 100 µM in [3]; > 100 µM (inactive) in assay [4]; > 100 µM (inactive) in assay [5]; > 100 µM (inactive) in assay [6]; > 100 µM (inactive) in [7]. Also, the GI50 in assay [9], in assay [17], in assay [10], in assay [11], in assay [12] and in [13] was > 100 µM (inactive) each time. In addition, the GI50 in [14], in assay [18], in assay [15], in assay [16] and in assay [19] was > 100 µM (inactive) throughout.

`NC(=O)NC(=O)c1cccc(CNc2ccc(C(=O)N[C@@H](CCC(=O)O)C(=O)O)cc2)n1`: the GI50 in [1] is > 100 µM (inactive); in assay [2], > 100 µM (inactive); in assay [3], greater than 100 µM; in assay [4] it was > 100 µM (inactive); in [5], > 100 µM (inactive); in assay [6], > 100 µM (inactive). Further, the GI50 in [20], in assay [8], in [9], in [17], in assay [10] and in [14] was > 100 µM (inactive) throughout. Further, the GI50 in assay [18], in assay [15] and in assay [19] was > 100 µM (inactive) throughout.

With `CCCCCCCCCCCCCCCCCCCCCC(=O)Nc1ccn(C2OC(CO)C(O)C2O)c(=O)n1` (configuration not stated), the GI50 in assay [2] is 9.62 µM (inactive); in assay [3], greater than 96.2 µM; in [4], > 100 µM (inactive); in assay [5] it was > 54.6 µM (inactive); in assay [6] it was 4.68 µM (inactive); in assay [8], > 40.8 µM (inactive). Besides, the GI50 was > 50.6 µM (inactive) in [9]; 10 µM (inactive) in assay [17]; > 100 µM (inactive) in assay [10]; > 83.6 µM (inactive) in [11]; > 100 µM (inactive) in assay [12]; > 57 µM (inactive) in [13]. Further, the GI50 in [14] was > 100 µM (inactive); in assay [18], 9.89 µM (inactive); in assay [15], > 100 µM (inactive); in assay [16], 34.2 µM (inactive); in [19] it was 29 µM (inactive).

In the case of `O=C(/N=N/c1ccccc1Cl)NNc1ccccc1Cl`, the GI50 in [1] is 31 µM (inactive); in [2] it was 18.5 µM (inactive); in assay [3], 60.7 µM; in [4], 24.7 µM (inactive); in [6] it was 55.5 µM (inactive); in assay [7] it was 30.5 µM (inactive). For the same compound, the GI50 in assay [9] was 27.8 µM (inactive); in [17] it was 19.2 µM (inactive); in assay [10], > 100 µM (inactive); in assay [11], > 100 µM (inactive); in [13], 63.2 µM (inactive); in assay [14], 35 µM (inactive). The GI50 in assay [18] was 23.4 µM (inactive); in assay [15], 69.7 µM (inactive); in assay [16], 29 µM (inactive); in assay [19] it was 85.3 µM (inactive).

These data come from ChEMBL document CHEMBL1201862, “PubChem BioAssay data set” (2004).
